# Test results published in ChEMBL document CHEMBL5518224, “Rational Design of PARP1/c-Met Dual Inhibitors for Overcoming PARP1 Inhibitor Resistance Induced by c-Met Overexpression” (J Med Chem, 2024).
# How the values were obtained:
# [1] = tested on: MDA-MB-231; assay: Antiproliferative activity against human MDA-MB-231 cells harboring wild type BRCA and c-Met amplification assessed as inhibition of cell growth incubated for 7 days by MTT assay; type: functional, cell-based; details: MDA-MB-231, 168 h
# [2] = target: Poly [ADP-ribose] polymerase 1 (Homo sapiens, UniProt P09874); assay: Inhibition of PARP1 (unknown origin) using histone as substrate incubated for 45 mins by absorbance based analysis
# Chain of Poly [ADP-ribose] polymerase 1 (P09874 whole entry): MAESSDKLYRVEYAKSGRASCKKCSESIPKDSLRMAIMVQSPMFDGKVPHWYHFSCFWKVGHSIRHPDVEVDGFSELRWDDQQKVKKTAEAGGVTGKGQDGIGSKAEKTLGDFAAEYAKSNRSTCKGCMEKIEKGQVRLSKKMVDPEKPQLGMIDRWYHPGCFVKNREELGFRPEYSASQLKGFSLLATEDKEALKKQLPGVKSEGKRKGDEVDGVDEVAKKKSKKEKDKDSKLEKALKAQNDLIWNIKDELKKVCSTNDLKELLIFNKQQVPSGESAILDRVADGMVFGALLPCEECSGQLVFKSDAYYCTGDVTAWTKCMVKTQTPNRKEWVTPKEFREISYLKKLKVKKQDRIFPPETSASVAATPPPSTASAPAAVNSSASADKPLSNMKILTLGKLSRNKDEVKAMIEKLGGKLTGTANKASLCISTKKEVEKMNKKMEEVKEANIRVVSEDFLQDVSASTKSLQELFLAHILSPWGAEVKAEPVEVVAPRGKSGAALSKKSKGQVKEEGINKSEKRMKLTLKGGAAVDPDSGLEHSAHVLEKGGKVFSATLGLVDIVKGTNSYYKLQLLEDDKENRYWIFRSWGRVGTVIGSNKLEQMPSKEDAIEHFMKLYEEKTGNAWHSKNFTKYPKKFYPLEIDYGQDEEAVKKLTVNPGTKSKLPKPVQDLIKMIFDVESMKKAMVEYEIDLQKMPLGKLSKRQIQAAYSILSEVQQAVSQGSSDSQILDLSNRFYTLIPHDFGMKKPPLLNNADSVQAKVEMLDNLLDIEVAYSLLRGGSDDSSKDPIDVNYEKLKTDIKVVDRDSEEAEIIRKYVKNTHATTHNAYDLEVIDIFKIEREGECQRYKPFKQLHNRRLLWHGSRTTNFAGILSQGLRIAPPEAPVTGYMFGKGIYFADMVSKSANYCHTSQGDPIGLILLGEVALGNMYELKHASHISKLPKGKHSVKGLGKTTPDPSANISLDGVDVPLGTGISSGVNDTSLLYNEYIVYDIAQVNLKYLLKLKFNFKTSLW
# [3] = target: T1, Hepatocyte growth factor receptor (Homo sapiens, UniProt P08581); assay: Inhibition of c-Met (unknown origin) by HTRF method
# T1 sequence (P08581 whole entry): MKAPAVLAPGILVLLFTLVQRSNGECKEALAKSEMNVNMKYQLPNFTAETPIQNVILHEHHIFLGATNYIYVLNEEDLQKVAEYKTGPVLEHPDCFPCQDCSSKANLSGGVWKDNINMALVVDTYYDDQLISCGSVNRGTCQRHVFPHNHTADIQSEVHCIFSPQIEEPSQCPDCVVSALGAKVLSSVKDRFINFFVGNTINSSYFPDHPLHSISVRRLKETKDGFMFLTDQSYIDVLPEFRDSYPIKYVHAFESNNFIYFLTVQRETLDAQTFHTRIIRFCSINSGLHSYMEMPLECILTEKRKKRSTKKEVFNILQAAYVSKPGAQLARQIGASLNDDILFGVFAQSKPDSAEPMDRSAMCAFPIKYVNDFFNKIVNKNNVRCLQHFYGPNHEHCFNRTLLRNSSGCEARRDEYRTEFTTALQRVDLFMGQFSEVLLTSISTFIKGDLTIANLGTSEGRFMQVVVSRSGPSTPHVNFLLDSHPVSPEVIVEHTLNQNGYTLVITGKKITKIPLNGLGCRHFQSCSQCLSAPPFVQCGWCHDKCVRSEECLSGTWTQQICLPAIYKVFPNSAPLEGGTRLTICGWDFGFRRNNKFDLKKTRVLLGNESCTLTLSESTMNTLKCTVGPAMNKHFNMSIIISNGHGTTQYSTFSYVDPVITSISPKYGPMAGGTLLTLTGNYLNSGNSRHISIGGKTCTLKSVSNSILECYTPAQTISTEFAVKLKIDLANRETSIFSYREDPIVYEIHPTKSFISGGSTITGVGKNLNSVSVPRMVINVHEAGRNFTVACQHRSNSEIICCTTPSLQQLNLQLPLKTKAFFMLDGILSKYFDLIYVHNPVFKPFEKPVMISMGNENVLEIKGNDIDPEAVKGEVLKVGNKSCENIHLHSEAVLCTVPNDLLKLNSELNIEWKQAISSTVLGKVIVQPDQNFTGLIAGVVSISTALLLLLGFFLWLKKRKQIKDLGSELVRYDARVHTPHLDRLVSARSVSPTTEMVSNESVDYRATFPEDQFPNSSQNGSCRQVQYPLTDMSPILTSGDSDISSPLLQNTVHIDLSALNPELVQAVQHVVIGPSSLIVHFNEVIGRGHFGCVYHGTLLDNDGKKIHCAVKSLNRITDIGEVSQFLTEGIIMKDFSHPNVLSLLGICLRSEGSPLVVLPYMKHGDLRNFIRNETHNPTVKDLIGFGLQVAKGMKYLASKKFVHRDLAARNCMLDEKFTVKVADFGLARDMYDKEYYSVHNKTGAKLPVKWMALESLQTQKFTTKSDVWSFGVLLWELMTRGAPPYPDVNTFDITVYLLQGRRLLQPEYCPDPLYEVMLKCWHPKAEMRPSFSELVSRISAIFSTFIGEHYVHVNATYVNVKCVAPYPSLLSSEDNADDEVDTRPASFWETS
# [4] = target: T1, Hepatocyte growth factor receptor; assay: Inhibition of c-Met (unknown origin) at 100 nM by HTRF method relative to control
Compound,IC50 [1],IC50 [2],IC50 [3],inhibition [4]
Cn1cc(-c2ccc(=O)n(CCOc3ccnc4cc(N5CCN(C(=O)c6cc(Cc7n[nH]c(=O)c8ccccc78)ccc6F)CC5)ccc34)n2)cn1,230 nM,0.12 nM,30 nM,
Cn1cc(-c2ccc(=O)n(CCOc3ccnc4cc(N5CCN(C(=O)c6cc(Cc7n[nH]c(=O)c8ccccc78)ccc6F)C(C)(C)C5)ccc34)n2)cn1,,> 1000 nM,,< 50%
Cn1cc(-c2ccc(=O)n(CCOc3ccnc4cc(N5CCC(NC(=O)c6cc(Cc7n[nH]c(=O)c8ccccc78)ccc6F)CC5)ccc34)n2)cn1,,42 nM,64.2 nM,
O=C(c1cc(Cc2n[nH]c(=O)c3ccccc23)ccc1F)N1CCN(c2ccc3c(OCCn4ncccc4=O)ccnc3c2)CC1,,0.9 nM,,< 50%
Cn1cc(-c2ccc(=O)n(CCOc3ccnc4cc(OC5CCN(C(=O)c6cc(Cc7n[nH]c(=O)c8ccccc78)ccc6F)CC5)ccc34)n2)cn1,,2.1 nM,,< 50%
CC1CN(c2ccc3c(OCCn4nc(-c5cnn(C)c5)ccc4=O)ccnc3c2)CCN1C(=O)c1cc(Cc2n[nH]c(=O)c3ccccc23)ccc1F (racemic),5540 nM,1.1 nM,29 nM,
Cn1cc(-c2ccc(=O)n(CCOc3ccnc4cc(NCCN5CCN(C(=O)c6cc(Cc7n[nH]c(=O)c8ccccc78)ccc6F)CC5)ccc34)n2)cn1,,32.2 nM,,< 50%
O=C(c1cc(Cc2n[nH]c(=O)c3ccccc23)ccc1F)N1CCN(c2ccc3c(OCCn4nc(-c5ccc(C(F)(F)F)cc5)ccc4=O)ccnc3c2)CC1,,7.3 nM,,< 50%
